Experimental findings from paper PMC1716192, “A Plant-Derived Morphinan as a Novel Lead Compound Active against Malaria Liver Stages” (PLoS Medicine, 2006) are described below.

Where two headings read alike, the source gives them in different places.

Holding throughout (format): cell-based
The subject of series [1] is P. falciparum (NF 54 strain) hepatic stages. Description: In vitro assay for P. falciparum liver stage inhibition in primary human hepatocytes. As to conditions: P. falciparum hepatic stages in primary human hepatocytes; for IC50: quantified at 5 d, read-out: IC50. The protocol:
(§1) P. yoelii (265 BY strain) and P. falciparum (NF 54 strain) sporozoites were obtained by dissection of infected Anopheles stephensi salivary glands. Primary mouse hepatocytes were isolated as previously described and seeded in eight-well Lab-Tek plastic chamber slides (VWR, Fontenay-sous-Bois, France) previously coated with rat-tail collagen I (BD Biosciences, Le Pont de Claix, France) at a density of 10^5 cells per well. Mouse hepatocytes were cultured at 37 °C in 5% CO2 in William's E medium supplemented with 10% fetal calf serum, 1% L-glutamine, 1% sodium pyruvate, 1% insulin-transferrin-selenium, 1% nonessential amino acids, and 1% penicillin-streptomycin (all from Invitrogen, Cergy-Pontoise, France), for 24 h before inoculation of P. yoelii sporozoites (10^5 per well). Human liver fragments were collected following informed consent provided from patients undergoing a partial hepatectomy. The collection and use of these tissues were undertaken in accordance with French Government ethical regulations. Primary human hepatocytes were isolated from the healthy parts of these liver biopsies as previously described. Human hepatocytes were seeded in LabTek plastic chamber slides coated with collagen, at a density of 1.8 × 10^5 cells per well and cultured at 37 °C in 5% CO2 in the same medium as above, supplemented with 10^−7 M dexamethasone (Sigma) and 2% DMSO after complete cell adherence (12–24 h), for at least 48 h before inoculation of P. falciparum sporozoites (10^5 per well). For a standard assay, the plant extract, the purified compound, or primaquine was solubilized in DMSO, further diluted in culture medium (equal DMSO concentrations of <0.3% per well), and then added to hepatocyte cultures at the time of sporozoite inoculation. Three hours later, after sporozoite penetration into hepatocytes, cultures were washed and further incubated in the presence of the drug. Culture medium containing the appropriate drug concentration was changed daily until 48 h for P. yoelii, or until 5 d for P. falciparum. Parasites were quantified on the last day of incubation. For the in vitro timing experiments, tazopsine treatment of P. yoelii and P. falciparum cultures was undertaken for different periods during the cultivation: 0 h to 3 h, 3 h to 24 h, or 24 h to 48 h after P. yoelii sporozoite inoculation (quantification at 48 h), or 0 h to 2 d, or 3 d to 5 d after P. falciparum sporozoite inoculation (quantification at 5 d). […] Cells were stained with Evans Blue (0.4%), and parasites and cells nuclei were stained with 1 μg/ml of diamidino-phenylindole (DAPI; Sigma). Parasite numbers were counted under a fluorescence microscope with a 25× light microscope objective. IC50 values, the drug concentration at which a 50% reduction in the number of parasites was observed, as compared to the number in the DMSO control cultures, were derived from two independent experiments in which each concentration was tested in triplicate wells.
(§2) IC50 and TC50 were calculated by nonlinear regression using four-parameter logistic curves on the SigmaPlot 10.0 software (http://www.systat.com). Each IC50 or TC50 is expressed as a mean between two independent experiments, followed by the standard error of the mean.

Series [2] concerns primary human hepatocytes. As to the kind of experiment: In vitro assay for cell viability (neutral red), human hepatocytes. As to conditions: 5 d drug exposure. Here is the method:
(§3) Primary hepatocytes of mice or humans were prepared as above and seeded in 96-well plates coated with collagen, at a density of 5 × 10^4 and 7 × 10^4 cells per well, respectively. Drugs were added to the culture medium, which was changed daily after 24 h or 48 h of incubation for mouse and human hepatocytes, respectively. After 48 h of drug exposure (mouse hepatocytes) or 5 d (human hepatocytes), 50 μl of neutral red (Sigma) at 0.02% in phosphate-buffered saline (PBS) were added per well and incubated for 24 additional hours. Cultures were then washed with PBS and the neutral red extracted with 1% SDS from viable cells and quantified by measuring the OD540 on a microplate autoreader photometer (BioTek Instruments, Winooski, Vermont, United States).
as §2

In series [3] the test system is P. yoelii (265 BY strain) hepatic stages. Description: In vitro assay for P. yoelii liver stage inhibition in primary mouse hepatocytes. Here is the method:
as §1, with “objective.” for “objective. IC50 values, the drug concentration at which a 50% reduction in the number of parasites was observed, as compared to the number in the DMSO control cultures, were derived from two independent experiments in which each concentration was tested in triplicate wells.”
as §2

The test system of series [4] is primary mouse hepatocytes. As to the kind of experiment: In vitro assay for cell viability (neutral red), mouse hepatocytes. As to conditions: 48 h drug exposure. Here is the method: as §3, §2
Where [5] appears, read: Plasmodium yoelii, Hepatocyte, 48 h.

For the compound `COc1cc(NC(C)CCCN)c2ncccc2c1` (stereo not shown) [Primaquine, reference compound], the IC50 is 800 ± 900 nM in series [1]; ~1000 nM in series [1] (Plasmodium falciparum, Hepatocyte, 120 h); 640 ± 100 nM in series [3] (P. yoelii hepatic stages in primary mouse hepatocytes, quantified at 48 h, read-out: IC50); ~1000 nM in series [3] (Plasmodium yoelii, Hepatocyte, 48 h, P. yoelii hepatic stages in primary mouse hepatocytes, quantified at 48 h, read-out: IC50). Besides, the IC90 is 4100 ± 500 nM in series [1] (Plasmodium falciparum, Hepatocyte, 120 h, 5 d, read-out: IC90) and > 30000 nM in series [3] (Plasmodium yoelii, Hepatocyte, P. yoelii hepatic stages in primary mouse hepatocytes, 48 h, read-out: IC90). For the same compound, the TC50 was 65200 ± 11900 nM in series [2] and 70500 ± 4300 nM in series [4].
As for `COc1ccc2c3c1O[C@H]1[C@@H](O)C=C[C@H]4[C@@H](C2)N(C)CC[C@@]341` [codeine, reference compound], the IC50 in series [3] (setting [5]) is > 100000 nM.
Take `COC1=CC=C2[C@H]3Cc4ccc(OC)c5c4[C@@]2(CCN3C)[C@H]1O5` [thebaine, reference compound]: the IC50 in series [3] (setting [5]) is > 100000 nM.
